The source of these data is US20230382904A1, “SUBSTITUTED 4-([1,2,4]TRIAZOLO[1,5-a]PYRIDIN-6-YL)THIOPHENE-2-CARBOXAMIDE DERIVATIVES AND USE THEREOF” (The Johns Hopkins University, priority 2020, published 2023).

A short description of data set [1]: Ischemia/Reperfusion (I/R) rat model, optokinetic tracking. Format: in vivo. As to conditions: prophylactic setting, after a 20 minute ischemic event. The method, then:
The animals were placed under anesthesia (Rompun (Xylazin als Xylazinhydrochlorid) 2%, Bayer, PZN-1320422, Ketavet (Ketaminhydrochlorid) 100 mg/mL, Pfizer, PZN-3151811) and the pupil on the right eye dilated (Neosynephrin-POS 5% Augentropfen, […], PZN 0828584).
When anesthetized, local anesthetic eye drops (Alcaine, lokalanästhetische Augentropfen, Alcon, 37516058) were applied to the right eye. The rat is on the left side. After a short exposure time, a 30G cannula was inserted laterally into the anterior chamber of the eye. To do this, the eye was fixed with a cotton swab so that it emerged from the eye socket. Once the cannula was placed, the eye was carefully released. The 30G cannula was connected via infusion set to a bag of isotonic infusion solution. The infusion bag hung in a pressure cuff. The pressure was regulated via the pressure cuff and the manometer. For the model, the intraocular pressure is increased to 120 mm Hg. The duration is 20 min. If the cannula fits correctly, the eye turns white, because the blood circulation was interrupted. During treatment, the rats lied on a warm mat (level 2). It was necessary to observe the anesthetic state of the animal. […]
For the optomotry readout only the spatial resolution is measured (spatial frequency). Both eyes were measured. […]

A further data set concerns the target LZK (Homo sapiens (Human), UniProt O43283). Kind of data set: LZK biochemical assay (TR-FRET, MKK7 phosphorylation). The method, boiled down:
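Catalytic-domain LZK (10 nM) phosphorylated His-MKK7 (15 nM) with 15 μM ATP for 90 min at RT. Phospho-T275/S277 detected by Eu-anti-phospho-MKK7/XL665-anti-His TR-FRET after 16 h at 32° C, using the 665/Eu ratio. Buffer: 50 mM Hepes pH 7.5, 10 mM MgCl2, 1 mM DTT.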

The subject of the next data set is DLK pathway activation. Kind of data set: Mouse optic nerve crush, p-JUN immunoreactivity in RGC layer. In kind it is in vivo. As to conditions: compared to RGCs treated with the vehicle. On the procedure: Approximately three-month-old male C57BL/6 mice were anesthetized with 100/10 mg/kg of Ketamine/Xylazine followed by topical administration of proparacaine. Under the binocular operating scope, optic nerves were surgically exposed and crushed with Dumont N7 self-closing forceps 1-2 mm behind the globe. A small incision was made at the conjunctiva located at lateral orbit of eye globe using spring scissors. To avoid bleeding from the vasculature, minimum incision was continued until the optic nerve was exposed. After clean exposure, the optic nerve was grasped at approximately 1-2 mm from the globe for 3-7 seconds using the fine micro forceps. After careful removal of the micro forceps, the globe was relocated and Tobramycin was administered. Ten days after nerve crush, eyes were enucleated and fixed and surviving RGC was immunostained for SNCG, RBPMS and βIII-tubulin. The retinas were then imaged with a Nikon Eclipse TE2000-5 fluorescence microscope and Plan-fluor 40 Å˜/0.6 objective. […] RGCs were counted manually from each image. In a separate cohort of animals, optic nerves and retinas were sectioned and stained for phospho-JUN (an indicator of DLK pathway activation) 24 hours after optic nerve crush. Intravitreal injection, optic nerve crush, immunofluorescence, and RGC counting were performed in a masked fashion.

Data set [2] is described as follows: In vitro PhysChem properties. In kind it is physicochemical.

LZK, sequence (O43283 168-409): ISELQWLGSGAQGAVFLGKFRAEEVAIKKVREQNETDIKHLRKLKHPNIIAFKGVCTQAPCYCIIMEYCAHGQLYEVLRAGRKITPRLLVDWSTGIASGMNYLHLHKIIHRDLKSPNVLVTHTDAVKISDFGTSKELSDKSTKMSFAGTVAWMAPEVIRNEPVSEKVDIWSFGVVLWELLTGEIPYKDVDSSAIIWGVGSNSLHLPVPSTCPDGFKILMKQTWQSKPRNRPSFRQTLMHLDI

On to `CC[C@H](NC(=O)c1cc(-c2cc(C(=O)N[C@@H](C)CC)c3nc(N)nn3c2)cs1)c1ccc(F)cc1` [Compound 112, 2-Amino-N-[(2S)-butan-2-yl]-6-(5-{[(1S)-1-(4-fluorophenyl)propyl]carbamoyl}thiophen-3-yl)[1,2,4]triazolo[1,5-a]pyridine-8-carboxamide], for which the retained vision in data set [1] is about 80%. Further, at LZK, 29 nM corresponded to half-maximal inhibition (IC50). Moreover, in the data set on DLK pathway activation, the “p-cJun intensity in the RGCs” value is on record as “decreased”. In data set [2], the chemical stability entry is reported as “chemically stable”.
